# “And” between values parts separate entries of the source, which are not always exact repeats. Equal entries are not always repeated. “Also recorded” adds a separate entry of the source.
# Columns and labels:
# fire ants [1] = assay: Field multiple-choice feeding bioassay (soybean oil consumption); type: in vivo, Solenopsis invicta; settings: for difference among treatments and control in oil consumption / feeding preference on soybean oil (one-way ANOVA): all tested concentrations of each compound in soybean oil, field multiple-choice; for concentration at which oil consumption was numerically the highest: multiple-choice bioassay of known attractants; for concentration at which the effect on oil consumption was statistically significant compared to the control oil: Tukey's HSD; for effect of different concentrations on oil consumption (one-way ANOVA): first multiple-choice bioassay: 10-oxo 9.09, 4.54, 2.27, 1.14 mg/g, 11-oxo 8.62, 4.31, 2.15, 1.08 mg/g
# Protocol: Multiple-choice and a paired two-choice bioassays were used in this study. A schematic representation of the bioassay set-ups is depicted in FIG. 19. Soybean oil was used as a food source for all the bioassays (Great Value, purchased from Walmart in Greenville Mississippi). The feeding apparatus was a filtered 1-ml pipette tip with the part 0.5 cm below the filter removed. In multiple-choice bioassays, four to six concentrations of tested compounds were tested with untreated soybean oil as a control, and in two-choice bioassays, the compound at certain concentration was tested against the control oil or oil treated with known fire ant attractant. Eighty microliter soybean oil was loaded onto each filter. After being weighed, the apparatuses with oil were placed in the field for about 2 hours. The apparatuses were then collected and frozen under −40° C. to kill all ants. The apparatuses were weighed again after all ants were removed from the apparatuses. The difference in the weight of apparatuses before and after the feeding bioassays was the oil consumption. There were six to 10 replicates for each bioassay. Feeding sites were at least 10 m away from each other. The difference in oil consumption among/between treatment and control apparatuses was used to evaluate the effect of tested compound on the feeding of fire ants. For multiple-choice bioassays, a one-way ANOVA was performed to compare the effect of different concentrations of tested compound on the percentage of oil consumption. Tukey's HSD test was used for multiple comparisons. A paired t test was used in statistical analysis for the two-choice bioassays. For each fatty acid, eight concentrations were tested in two separate multiple-choice bioassays. For 10-oxo-dodecnoic acid, the first set used in the multiple-choice bioassay included concentrations of 0.00 mg/g (control), 9.09 mg/g, 4.54 mg/g, 2.27 mg/g, and 1.14 mg/g, and the second set included 0.00 mg/g, […], 0.28 mg/g, 0.142 mg/g, and 0.07 mg/g. There were seven replicates for each set of bioassay. For 11-oxo-dodecnoic acid, the first set used in the multiple-choice bioassay included concentrations of 0.00 mg/g, 8.62 mg/g, 4.31 mg/g, 2.15 mg/g, and 1.08 mg/g, and the second set included 0.00 mg/g, 0.54 mg/g, 0.27 mg/g, 0.14 mg/g, and 0.07 mg/g. There were six replicates for the first set of bioassay and seven replicates for the second set of bioassay. Five oxo fatty acid analogs were tested in the filed using two-choice or multiple-choice bioassays. Tested were 8-oxo-decanoic acid, 9-oxo-2-decenoic acid, 9-oxo-decanoic acid, 11-oxo-tridecanoic acid, and 12-oxo-tetradecanoic acid. Eight oxo-decanoic acid was tested in a multiple-choice bioassay at 6 different concentrations including 0.00 mg/g, 0.81 mg/g, 0.41 mg/g, 0.20 mg/g, 0.10 mg/g, and 0.05 mg/g. There were 10 replicates for the bioassay. For 9-oxo-2-decenoic acid, a two-choice bioassay was conducted with each of the following six concentrations: 0.39 mg/g, 0.197 mg/g, 0.098 mg/g, 0.049 mg/g, 0.025 mg/g, and 0.012 mg/g. There were 5 to 7 replicates for each two-choice bioassay. For 9-oxo-decanoic acid, a multiple-choice bioassay was conducted at six concentrations including 0.00 mg/g, 0.124 mg/g, 0.062 mg/g, 0.031 mg/g, 0.016 mg/g, and 0.007 mg/g. There were 11 replicates. For 11-oxo-tridecanoic acid, a multiple-choice bioassay was conducted at five concentrations including 0.00 mg/g, 7.71 mg/g, 3.86 mg/g, 1.93 mg/g, and 0.96 mg/g. There were 6 replicates. For 12-oxo-tetradecanoic acid, a multiple-choice bioassay was conducted at six concentrations including 0.00 mg/g, 1.15 mg/g, 0.58 mg/g, 0.29 mg/g, 0.14 mg/g, and 0.07 mg/g. There were 7 replicates.
# fire ants [2] = assay: Field paired two-choice feeding bioassay (soybean oil consumption); type: in vivo, Solenopsis invicta
# Protocol: Multiple-choice and a paired two-choice bioassays were used in this study. A schematic representation of the bioassay set-ups is depicted in FIG. 19. Soybean oil was used as a food source for all the bioassays (Great Value, purchased from Walmart in Greenville Mississippi). The feeding apparatus was a filtered 1-ml pipette tip with the part 0.5 cm below the filter removed. In multiple-choice bioassays, four to six concentrations of tested compounds were tested with untreated soybean oil as a control, and in two-choice bioassays, the compound at certain concentration was tested against the control oil or oil treated with known fire ant attractant. Eighty microliter soybean oil was loaded onto each filter. After being weighed, the apparatuses with oil were placed in the field for about 2 hours. The apparatuses were then collected and frozen under −40° C. to kill all ants. The apparatuses were weighed again after all ants were removed from the apparatuses. The difference in the weight of apparatuses before and after the feeding bioassays was the oil consumption. There were six to 10 replicates for each bioassay. Feeding sites were at least 10 m away from each other. The difference in oil consumption among/between treatment and control apparatuses was used to evaluate the effect of tested compound on the feeding of fire ants. For multiple-choice bioassays, a one-way ANOVA was performed to compare the effect of different concentrations of tested compound on the percentage of oil consumption. Tukey's HSD test was used for multiple comparisons. A paired t test was used in statistical analysis for the two-choice bioassays.
# Five oxo fatty acid analogs were tested in the filed using two-choice or multiple-choice bioassays. Tested were 8-oxo-decanoic acid, 9-oxo-2-decenoic acid, 9-oxo-decanoic acid, 11-oxo-tridecanoic acid, and 12-oxo-tetradecanoic acid. Eight oxo-decanoic acid was tested in a multiple-choice bioassay at 6 different concentrations including 0.00 mg/g, 0.81 mg/g, 0.41 mg/g, 0.20 mg/g, 0.10 mg/g, and 0.05 mg/g. There were 10 replicates for the bioassay. For 9-oxo-2-decenoic acid, a two-choice bioassay was conducted with each of the following six concentrations: 0.39 mg/g, 0.197 mg/g, 0.098 mg/g, 0.049 mg/g, 0.025 mg/g, and 0.012 mg/g. There were 5 to 7 replicates for each two-choice bioassay. For 9-oxo-decanoic acid, a multiple-choice bioassay was conducted at six concentrations including 0.00 mg/g, 0.124 mg/g, 0.062 mg/g, 0.031 mg/g, 0.016 mg/g, and 0.007 mg/g. There were 11 replicates. For 11-oxo-tridecanoic acid, a multiple-choice bioassay was conducted at five concentrations including 0.00 mg/g, 7.71 mg/g, 3.86 mg/g, 1.93 mg/g, and 0.96 mg/g. There were 6 replicates. For 12-oxo-tetradecanoic acid, a multiple-choice bioassay was conducted at six concentrations including 0.00 mg/g, 1.15 mg/g, 0.58 mg/g, 0.29 mg/g, 0.14 mg/g, and 0.07 mg/g. There were 7 replicates.
# The following paired two-choice bioassays were conducted: 1) 10-oxo-dodecanoic acid at 1.14 mg/g vs trans, trans-2,4-heptadienal at 0.19 mg/g; 2) 11-oxo-dodecanoic acid at 1.08 mg/g vs trans, trans-2,4-heptadienal at 0.19 mg/g; 3) 10-oxo-dodecanoic acid at 1.14 mg/g vs 2-ethyl-3,6 (5)-dimethylpyrazine at 0.004 mg/g; 4) 11-oxo-dodecanoic acid at 1.08 mg/g vs 2-ethyl-3,6 (5)-dimethylpyrazine at 0.004 mg/g. The results are shown in Table 2 below, and FIG. 29A to FIG. 29D.
# fire ants [3] = settings: Vander Meer et al., 2009; cited from earlier work
# worker fire ants = assay: Attraction bioassay (paired two choice, treated tube vs acetone control); type: in vivo, S. invicta; settings: individual oxo acids, 20 μl acetone solution: 2.029 mg/ml 10-oxo-dodecanoic acid, 1.96 mg/ml 11-oxo-dodecanoic acid; host tray; 1 hour; paired t test
# fire ants [4] = assay: Feeding bioassay (laboratory paired two-choice, treated vs untreated soybean oil); type: in vivo, S. invicta; settings: soybean oil with 1.90 μg/mg 10-oxo-dodecanoic acid, 7.273 μg/mg 11-oxo-dodecanoic acid, or 0.36 μg/mg mixture (38.12%/61.88%) vs untreated oil; 24 hours; paired t test
# [5] = Bioassay 3: 10-oxo-dodecanoic acid 1.14 mg/g vs 2-ethyl-3,6 (5)-dimethylpyrazine 0.004 mg/g
# [6] = Bioassay 3: 10-oxo-dodecanoic acid at 1.14 mg/g vs 2-ethyl-3,6 (5)-dimethylpyrazine at 0.004 mg/g
# [7] = Bioassay 4: 11-oxo-dodecanoic acid 1.08 mg/g vs 2-ethyl-3,6 (5)-dimethylpyrazine 0.004 mg/g
# [8] = Bioassay 4: 11-oxo-dodecanoic acid at 1.08 mg/g vs 2-ethyl-3,6 (5)-dimethylpyrazine at 0.004 mg/g
# [9] = first multiple-choice bioassay (about 1 to 9 mg/g)
# [10] = control 0.00 mg/g, field, about 2 hours
# [11] = Bioassay 1: 10-oxo-dodecanoic acid 1.14 mg/g vs trans, trans-2,4-heptadienal 0.19 mg/g
# [12] = Bioassay 1: 10-oxo-dodecanoic acid at 1.14 mg/g vs trans, trans-2,4-heptadienal at 0.19 mg/g
# [13] = Bioassay 2: 11-oxo-dodecanoic acid 1.08 mg/g vs trans, trans-2,4-heptadienal 0.19 mg/g
# [14] = Bioassay 2: 11-oxo-dodecanoic acid at 1.08 mg/g vs trans, trans-2,4-heptadienal at 0.19 mg/g
molecule,measurement,setting,value
"2-ethyl-3,6 (5)-dimethylpyrazine [reference compound]",difference among treatments and control in oil consumption / feeding preference on soybean oil (one-way ANOVA),fire ants [1],significant difference
same,concentration at which oil consumption was numerically the highest,fire ants [1],0.004 mg/g
same,concentration that significantly improved the feeding preference of fire ant on soybean oil,"fire ants [1]; multiple-choice, 0.064 to 0.002 mg/g tested",0.002 mg/g and 0.004 mg/g
same,difference in the effect on oil consumption between the two compounds,fire ants [2]; [5],significantly higher oil consumption
same,Mean oil consumption,fire ants [2]; [6],19.53 mg
same,difference in the effect on oil consumption between the two compounds,fire ants [2]; [7],significantly higher oil consumption
same,Mean oil consumption,fire ants [2]; [8],21.75 mg
same,concentration mostly preferred by fire ants,fire ants [3],30 ng/µL
CCC(=O)CCCCCCC(=O)O [8-oxo-decanoic acid],difference among treatments and control in oil consumption / feeding preference on soybean oil (one-way ANOVA),fire ants [1],no significant difference
CC(=O)CCCCCC=CC(=O)O [9-oxo-2-decenoic acid],feeding preference of fire ant on soybean oil,fire ants [2]; 0.049 mg/g in soybean oil vs control,significantly improved
CC(=O)CCCCCCCC(=O)O [9-oxo-decanoic acid],difference among treatments and control in oil consumption / feeding preference on soybean oil (one-way ANOVA),fire ants [1],no significant difference
CCC(=O)CCCCCCCCC(=O)O [10-oxo-dodecanoic acid],difference in the number of ants between treatment vials and control vials,worker fire ants,significant
same,difference in oil consumption between treatment and control,fire ants [4],significant
same,concentration at which the effect on oil consumption was statistically significant compared to the control oil,fire ants [1]; [9],1.14 mg/g
same,effect of different concentrations on oil consumption (one-way ANOVA),fire ants [1]; [10],significant effect
same,concentration at which the effect on oil consumption was statistically significant compared to the control oil,fire ants [1]; second multiple-choice bioassay (0.07 to about 0.5 mg/g),0.51 mg/g
same,difference in the effect on oil consumption between the two compounds,fire ants [2]; [11],no significant difference
same,Mean oil consumption,fire ants [2]; [12],23.84 mg
same,difference in the effect on oil consumption between the two compounds,fire ants [2]; [5],significant difference
same,Mean oil consumption,fire ants [2]; [6],12.69 mg
CC(=O)CCCCCCCCCC(=O)O [11-oxo-dodecanoic acid],difference in the number of ants between treatment vials and control vials,worker fire ants,significant difference
same,difference in oil consumption between treatment and control,fire ants [4],significant difference
same,most active / most effective concentration,fire ants [1]; dosage bioassays in soybean oil,around 1.08 mg/g
same,concentration at which the effect on oil consumption was statistically significant compared to the control oil,fire ants [1]; [9],1.08 mg/g
same,effect of different concentrations on oil consumption (one-way ANOVA),fire ants [1]; [10],significant effect
same,effect on oil consumption (one-way ANOVA),"fire ants [1]; second multiple-choice bioassay: 10-oxo 0.51, 0.28, 0.142, 0.07 mg/g, 11-oxo 0.54, 0.27, 0.14, 0.07 mg/g, control 0.00 mg/g, field, about 2 hours",no significant effect
same,difference in the effect on oil consumption between the two compounds,fire ants [2]; [13],no significant difference
same,Mean oil consumption,fire ants [2]; [14],21.23 mg
same,difference in the effect on oil consumption between the two compounds,fire ants [2]; [7],significant difference
same,Mean oil consumption,fire ants [2]; [8],15.8 mg
CCC(=O)CCCCCCCCCC(=O)O [11-oxo-tridecanoic acid],difference among treatments and control in oil consumption / feeding preference on soybean oil (one-way ANOVA),fire ants [1],no significant difference
CCC(=O)CCCCCCCCCCC(=O)O [12-oxo-tetradecanoic acid],difference among treatments and control in oil consumption / feeding preference on soybean oil (one-way ANOVA),fire ants [1],no significant difference
"CC/C=C/C=C/C=O [trans, trans-2,4-heptadienal, reference compound]",difference among treatments and control in oil consumption / feeding preference on soybean oil (one-way ANOVA),fire ants [1],did not significantly improve; also recorded: not significantly different
same,concentration at which oil consumption was numerically the highest,fire ants [1],0.19 mg/g
same,difference in the effect on oil consumption between the two compounds,fire ants [2]; [11],no significant difference
same,Mean oil consumption,fire ants [2]; [12],22.83 mg
same,difference in the effect on oil consumption between the two compounds,fire ants [2]; [13],no significant difference
same,Mean oil consumption,fire ants [2]; [14],19.95 mg
